Measured values published in article PMC7761903, “Aldehyde Dehydrogenases and Prostate Cancer: Shedding Light on Isoform Distribution to Reveal Druggable Target” (Biomedicines, 2020).
“Also recorded” adds a separate entry of the source.

Columns and labels:
Type in all cases: cell-based, human
[1] = tested on: P4E6 cell line; experiment: Alamar Blue cell viability, P4E6; details: for EC50: 72 h exposure, Alamar Blue
From the text: (§1) Five different prostate cell lines, including normal cell line PNT2-C2 (Merck), benign prostatic hyperplasia cell line BPH1 (gift from Simon W. Hayward, Evanston, IL, USA), and cancer cell lines including PC-3 (derived from prostate cancer bone metastasis) (ATCC), LNCaP (derived from prostate cancer lymph node metastasis) (ATCC), and P4E6 (derived from localized prostate cancer) (derived in York and available from European Collection of Authenticated Cell Cultures ECACC), as well as two primary malignant cell lines, H796/19 and H798/19 (both Gleason 7 grade cancers) (obtained in York with ethical permission, REC ref 07/H1304/121) were used in the study. Culturing of commercially available cell lines and processing and culturing of primary cells were carried out as previously described. Primary cells were typically used at a passage <5 since they have finite growth and the intention is to maintain them as close to the original tumor as possible.
(§2) AlamarBlue quantitatively measures cell viability since actively metabolizing cells can reduce its active ingredient resazurin to a fluorescent molecule (resorufin) which can be subsequently analyzed on a plate reader. Cells were plated in 96 well plates at a density of 5000 cells/well and left to adhere overnight in 200 μL media. The following day cells were treated with 9 different concentrations of the test drugs in triplicate, ranging from 10^−5 M to 10^−13 M. After 72 h exposure 20 μL of AlamarBlue reagent (diluted 1:10 in the corresponding media for each cell line) was added to each well and incubated at 37 °C for 2 h. Fluorescence intensity was determined using a microplate reader (Polarstar Optima, BMG Labtech) at excitation/emission values 73 of 544/590 nm. EC50 values were calculated using the software GraphPad Prism Version 6 (San Diego, CA, USA).

[2] = tested on: PC3 cell line; experiment: Alamar Blue cell viability, PC3; details: for EC50: 72 h exposure, Alamar Blue
From the text: as §1, §2

[3] = tested on: LNCaP cell line; experiment: Alamar Blue cell viability, LNCaP; details: 72 h exposure
From the text: as §1, §2

[4] = tested on: PNT2-C2 normal prostate epithelial cell line; experiment: Alamar Blue cell viability, PNT2-C2; details: 72 h exposure
From the text: as §1, §2

[5] = tested on: BPH1 benign prostatic hyperplasia cell line; experiment: Alamar Blue cell viability, BPH1
From the text: as §1, §2

[6] = tested on: PC3 cell line; experiment: Colony-forming assay, PC3; details: 72 h exposure at EC50, EC50×2, EC50×5
Procedure: PNT2-C2, BPH1 and PC3 cell lines were plated in 12-well plates with a density of 4 × 10^4 cells/well and left to adhere overnight in 1.00 mL media. The following day cells were treated with 3 different concentrations of the test drugs, based on the EC50 values in cell viability (EC50, EC50×2, EC50×5). After 72 h of exposure, cells were counted and plated into 12 well plates in triplicate with a density of 100 cells/well. At day 8, cells were stained with crystal violet (1% (w/v) crystal violet, 10% (v/v) ethanol in PBS). Colonies consisting of >32 cells were counted (representative of 5 population doublings).

[7] = tested on: ALDH1A3 gene expression in primary prostate epithelial cell cultures; experiment: qPCR ALDH1A3 gene expression after atRA treatment; details: atRA 100 nM, 72 hours; 1xBPH, 1xBPH-PIN, 2x PCa primary cultures; no statistical test
Procedure: (§3) RNA extraction was carried out using the RNeasy Mini Kit (Qiagen, Hilden, Germany). The concentration and quality of the eluted RNA were determined using a NanodropTM2000 (Thermo Fisher Scientific, Waltham, MA, USA) spectrophotometer and measuring the 260/280 ratio. Total RNA of 50–2000 ng was reverse transcribed into single-stranded cDNA using the High Capacity cDNA Reverse Transcription Kit (Thermo Fisher Scientific, Waltham, MA, USA). Once the reaction finished, samples were purified using the QIAquick PCR Purification Kit (Qiagen). The concentration and quality of the cDNA was measured by using the NanodropTM2000 spectrophotometer. qPCR was carried out in 25 μL total PCR reaction using the TaqMan Universal PCR Master Mix (Applied Biosystems, Thermo Fisher Scientific, Waltham, MA, USA). The PCR reaction consisted of 12.5 μL of 2× master mix, 1.25 μL of 20× TaqMan Gene Expression Assay Mix (Supplementary Table S1), and 11.25 μL cDNA diluted in dH2O. A 96-well MicroAmp Optical plate (Applied Biosystems) was used and all reactions were run in triplicates. Primers used were obtained from TaqMan Gene Expression Assays (Thermo Fisher Scientific, Waltham, MA, USA). […] The gene expression level relative to internal control RPLP0 was calculated using the formula 2^−∆CT and the fold change in gene expression was worked out using the 2^−∆∆CT method. […]

[8] = tested on: ALDH1A1 gene expression in primary prostate epithelial cell cultures; experiment: qPCR ALDH1A1 gene expression after atRA treatment; details: atRA 100 nM, 72 hours; 1xBPH, 1xBPH-PIN, 2x PCa primary cultures; no statistical test
Procedure: as §3

Row | SMILES | EC50 [1] [nM] | EC50 [2] [nM] | EC50 [3] [nM] | EC50 [4] [nM] | EC50 ([5]; 72 h exposure) [nM] | other results
1 | c1ccc(-c2ccc3nc(-c4ccccc4)cn3c2)cc1 [Compound 3a] | 60.7 | 239 | 315 | 423 | 113 | –
2 | Fc1ccc(-c2ccc3nc(-c4ccccc4)cn3c2)cc1 [Compound 3b, 6-(4-fluorophenyl)-2-phenylimidazo [1,2-a]pyridine] | – | – | – | – | – | EC50 ([1]; Homo sapiens): 4.04 nM; antiproliferative activity against P4E6 ([1]; result in words): antiproliferative activity in the nanomolar range; also recorded: nanomolar efficacy; EC50 ([2]; Homo sapiens, PC-3): 70.9 nM; antiproliferative activity against PC3 ([2]; result in words): antiproliferative activity in the nanomolar range; also recorded: nanomolar efficacy; EC50 ([3]; Homo sapiens, LNCaP): 240 nM; EC50 ([4]; Homo sapiens, Epithelial cell): 217 nM; EC50 ([5]; Homo sapiens, BPH-1, 72 h exposure): 41.5 nM; colony-forming efficiency PC3 [6]: inhibitory efficacy against PC3 colony-forming efficiency
3 | Clc1ccc(-c2ccc3nc(-c4ccccc4)cn3c2)cc1 [Compound 3c] | 33.4 | 322 | 323 | 325 | 416 | –
4 | N#Cc1cccc(-c2ccc3nc(-c4ccccc4)cn3c2)c1 [Compound 3d] | 440 | – | 7180 | 1720 | 351 | selectivity of PC3 colony forming inhibition versus PNT2-C2 or BPH-1 [6]: selectively inhibited PC3 colony forming more strongly than PNT2-C2 or BPH-1; also recorded: selective inhibition of PC3 colony formation
5 | CC1=C(/C=C/C(C)=C/C=C/C(C)=C/C(=O)O)C(C)(C)CCC1 [atRA] | – | – | – | – | – | gene expression for ALDH1A3 [7]: increase; gene expression for ALDH1A1 [8]: no apparent effect
